7 compounds from PubChem BioAssay (NCI) can be followed below.

Some test systems named below: SW-620 colon; OVCAR-4 ovarian; K-562 leukemia; RXF 393 renal; LOX IMVI melanoma; BT-549 breast; MDA-MB-231 breast; KM12 colon; SN12C renal; DU-145 prostate.
Test in all cases: NCI-60 cell line screen, 48 h

Values joined by “and” are separate entries in the source; they are usually repeats but may differ in a detail not shown here. Equal entries are not always repeated.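 Growth conditions: 96-well plates. Treatment: test compound, 48 hours, 5 concentrations. Analysis: linear interpolation between bracketing concentrations; unreached endpoints set to highest concentration. GI50: concentration for 50% inhibition of growth. TGI: total growth inhibition.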 Bounds are passed on as bounds.

Regarding `COC1C(O)CC(OC2CC(OC3CC(O[C@@H]4C(=O)c5c(cc6cc(OC7CC(OC8CC(O)C(O)C(C)O8)C(O)C(C)O7)c(C)c(O)c6c5O)CC4[C@H](OC)C(=O)O)OC(C)C3O)OC(C)C2O)OC1C` (some centres undefined), the GI50 in the test on SW-620 colon was 2.52 µM; in the test with OVCAR-4 ovarian, 4.9 µM; with K-562 leukemia, 1.96 µM; in the test on RXF 393 renal, 1.1 µM; with LOX IMVI melanoma, 0.983 µM; in the test with BT-549 breast, 1.8 µM. The GI50 is 4.43 µM in the test with MDA-MB-231 breast, 1.89 µM in the test with KM12 colon, 1.72 µM in the test on SN12C renal and 1.96 µM in the test with DU-145 prostate. The TGI is above 33.3 µM with SW-620 colon; above 33.3 µM with OVCAR-4 ovarian; above 33.3 µM in the test on K-562 leukemia; 4.22 µM in the test on RXF 393 renal; 5.07 µM in the test with LOX IMVI melanoma; 31.8 µM with BT-549 breast. For the same compound, the TGI with MDA-MB-231 breast, with KM12 colon, in the test on SN12C renal and with DU-145 prostate was above 33.3 µM each time.
In the case of `CSc1c(C2=C(c3cn(C)c4ccccc34)C(=O)NC2=O)c2ccccc2n1C`, the GI50 was 0.736 µM in the test with SW-620 colon; 1.2 µM in the test on OVCAR-4 ovarian; 0.665 µM in the test with K-562 leukemia; 0.273 µM in the test on RXF 393 renal; 1.54 µM in the test with LOX IMVI melanoma; 0.747 µM in the test with BT-549 breast. The GI50 with MDA-MB-231 breast is 2.57 µM; in the test on KM12 colon, 0.843 µM; in the test with SN12C renal, 1.49 µM; with DU-145 prostate, 1.13 µM. The TGI in the test with SW-620 colon was above 25 µM; in the test on OVCAR-4 ovarian, above 22.5 µM; with K-562 leukemia it was above 25 µM; in the test with RXF 393 renal, 1.4 µM; in the test with LOX IMVI melanoma, above 25 µM; in the test on BT-549 breast it was 11.5 µM. For the same compound, the TGI in the test on MDA-MB-231 breast, in the test on KM12 colon, with SN12C renal and with DU-145 prostate was above 25 µM each time.
For `CCN(CC)CCCC(C)Nc1ccnc2cc(Cl)ccc12` (centres undefined), the TGI in the test on SW-620 colon was above 100 µM; in the test on OVCAR-4 ovarian, above 100 µM; with K-562 leukemia it was 88.2 µM and 32.4 µM; with RXF 393 renal, > 100 µM and 26.2 µM; with LOX IMVI melanoma, 48.8 µM and 45 µM; in the test with BT-549 breast, above 100 µM. The TGI in the test with MDA-MB-231 breast was > 100 µM and 73.4 µM; in the test on KM12 colon it was above 100 µM; in the test on SN12C renal, > 100 µM and 97.1 µM; in the test with DU-145 prostate, above 100 µM. For the same compound, the GI50 with OVCAR-4 ovarian was above 100 µM; in the test with K-562 leukemia, 22.6 µM; in the test on RXF 393 renal it was 7.95 µM; in the test with LOX IMVI melanoma, 18.4 µM; with BT-549 breast, 55.9 µM; in the test with MDA-MB-231 breast, above 100 µM. The GI50 in the test with KM12 colon was 79.5 µM; with SN12C renal, above 100 µM; in the test with DU-145 prostate, above 100 µM.
Consider `CC(=O)OC1CCC2(C)C(CCC3C2CC(=O)C2(C)C3CC(N3CC3)C2C(C)=O)C1` (centres undefined), for which the TGI is above 100 µM with SW-620 colon; above 100 µM with OVCAR-4 ovarian; 89.7 µM with K-562 leukemia; 42.3 µM with RXF 393 renal; 29.3 µM in the test with LOX IMVI melanoma; 40.1 µM with BT-549 breast. For the same compound, the TGI in the test with MDA-MB-231 breast is 38.1 µM; in the test with KM12 colon it was 43.4 µM; in the test with SN12C renal it was 61 µM; with DU-145 prostate, above 100 µM.
Take `CC/C=C\C[C@H](F)C/C=C1/C(=O)C=C[C@@H]1C/C=C\CCCC(=O)OC`: the GI50 in the test with SW-620 colon was 1.62 µM; with OVCAR-4 ovarian, 3.35 µM; with K-562 leukemia, 1.49 µM; with RXF 393 renal, 6.95 µM; with LOX IMVI melanoma, 0.854 µM; in the test with BT-549 breast, 1.5 µM. The GI50 in the test with MDA-MB-231 breast was 1.91 µM; with KM12 colon, 1.26 µM; with SN12C renal it was 1.25 µM; with DU-145 prostate, 3.17 µM. Also, the TGI with SW-620 colon was found to be 4.73 µM; in the test on OVCAR-4 ovarian, 10.1 µM; with K-562 leukemia, 6.19 µM; with RXF 393 renal, 14.3 µM; with LOX IMVI melanoma, 1.75 µM; with BT-549 breast, 4.15 µM. Also, the TGI with MDA-MB-231 breast stood at 6.7 µM; in the test on KM12 colon, 3.43 µM; with SN12C renal, 3.24 µM; with DU-145 prostate, 9.81 µM.
Consider `Cn1c(=O)c(Oc2ccc(F)cc2F)cc2cnc(NC(C)(C)CO)nc21`, for which the GI50 is above 25 µM with SW-620 colon; above 25 µM with OVCAR-4 ovarian; above 25 µM in the test with K-562 leukemia; above 25 µM in the test with RXF 393 renal; above 25 µM in the test on LOX IMVI melanoma; above 21.4 µM with BT-549 breast. Further, the GI50 in the test on MDA-MB-231 breast, in the test on KM12 colon, with SN12C renal and in the test on DU-145 prostate was above 25 µM each time. Besides, the TGI in the test with SW-620 colon, with OVCAR-4 ovarian, with K-562 leukemia, in the test with RXF 393 renal, in the test on LOX IMVI melanoma and with BT-549 breast was above 25 µM throughout. Moreover, the TGI in the test on MDA-MB-231 breast, in the test with KM12 colon, in the test on SN12C renal and in the test with DU-145 prostate was above 25 µM throughout.
`O=c1oc2ccc(I)cc2c(=O)n1-c1ccc(F)cc1F`: the GI50 in the test with SW-620 colon is 2.73 µM; with OVCAR-4 ovarian it was 2.07 µM; with K-562 leukemia, 2.56 µM; in the test with RXF 393 renal, 2.44 µM; in the test on LOX IMVI melanoma it was 2.51 µM; in the test with BT-549 breast, 1.91 µM. The GI50 was 1.89 µM in the test with MDA-MB-231 breast, 2.51 µM in the test on KM12 colon, 2.36 µM in the test on SN12C renal and 3.57 µM in the test with DU-145 prostate. The TGI in the test with SW-620 colon was 11.6 µM; in the test with OVCAR-4 ovarian it was 8.97 µM; with K-562 leukemia, above 100 µM; in the test on RXF 393 renal, 6.09 µM; in the test with LOX IMVI melanoma, 10.9 µM; in the test with BT-549 breast, 4.98 µM. Moreover, the TGI in the test with MDA-MB-231 breast was found to be 6.01 µM; in the test on KM12 colon it was 6.8 µM; with SN12C renal, 8.91 µM; with DU-145 prostate, 58.5 µM.
